# From publication PMC6943612, “Investigation of Anti-Inflammatory Potential of N-Arylcinnamamide Derivatives” (Molecules, 2019)
# Legend:
# MAPKs (p38, ERK1/2, JNK) = assay: Signaling pathway analysis (Western blot): phosphorylated MAPKs; format: cell-based; details: 2 µM, 30 min after LPS 1 µg/mL
# Experimental: (§1) The level of IĸB and the amount of activated (phosphorylated) mitogen-activated protein (MAP) kinase p38, ERK1/2, and JNK was determined on the THP1-Blue™ NF-κB, in a way similar to that described previously. Briefly, cells cultivated in serum-free medium were pretreated with the tested compounds (8, 17, cinnamic acid, or prednisone) at concentration 2 µM. One hour later, 1 µg/mL of LPS was added, and after 30 min the cells were collected into ice-cold Mammalian Cell Lysis Buffer (Abcam, Cambridge, UK) with phosphatase inhibitors PhosSTOP (Roche, Mannheim, Germany). Cell lysates were centrifuged 3000 g/5 min/4 °C and supernatants were mixed with 5× Laemmli reducing buffer [250 mM Tris-HCl pH 6.8, 10% (w/v) SDS, 30% (v/v) glycerol, 5% (v/v) β-mercaptolethanol, 0.04% (w/v) bromphenol blue], and incubated at 95 °C for 5 min. […] The membranes were incubated at 4 °C for 16 h with primary anti-IĸB-α (Cell Signaling; product No. 4814; dilution 1:1,000), anti-p44/42 MAPK (ERK1/2) (Cell Signaling; product No. 9102; dilution 1:1,000), anti-phospho-p44/42 MAPK (ERK1/2) (Cell Signaling; product No. 9101; dilution 1:1,000), anti-JNK1/2/3 (Abcam; product No. ab179461; dilution 1:1,000), anti-phosho-JNK1/2/3 (Abcam; product No. ab76572; dilution 1:5,000), anti-p38 MAPK (Cell Signaling; product No. 8690; dilution 1:1,000), anti-phospho-p38 MAPK (Cell Signaling; product No. 9210; dilution 1:1,000), and anti-β-actin (Santa Cruz, Aachen, Germany; product No. sc-47778; dilution 1:5000) antibodies. […] The amount of bound secondary antibody was determined using WesternSure® PREMIUM Chemiluminescent Substrate (LI-COR, Lincoln, NE, USA). Chemiluminescence was detected using a LI-COR C-DiGit chemiluminescence imaging system (LI-COR).
# (§2) Figure 6 Effect of N-arylcinnamamide derivatives on the activation of MAPKs. […] Cells were collected 30 min after LPS stimulation and selected proteins were detected by Western blot and immunodetection.
# [1] = test system: transcription factor NF-κB; assay: Determination of LPS-induced NF-κB activity (Quanti-Blue, SEAP reporter); format: cell-based; details: for inhibition at 2 µM: concentration of compounds 2 µM; for inhibition at 2 µM / inhibition at 0.5 µM: LPS 1 µg/mL, 24 h; for inhibitory effect on NF-κB activity compared with prednisone (in words): 2 µM, same concentration as prednisone; for inhibition at 0.5 µM: concentration of compounds 0.5 µM
# Experimental: The activity of NF-κB transcription factors was evaluated on THP1-Blue™ NF-κB cells as described previously. […] After 24 h of incubation, 20 µL of cultivation medium was mixed with 200 µL of Quanti-Blue™ medium (Invivogen) and incubated according to the manufacturer’s instructions at 37 °C for 30–40 min. The activity of NF-κB was determined as secretion of embryonic alkaline phosphatase spectrophotometrically in a Tecan Infinite M200 (Tecan, Männedorf Switzerland) at 650 nm and compared with an untreated control (100%).
# Figure 3 Effect of the tested compounds on the activity of transcription factor NF-κB. THP1-Blue™ NF-κB cells were pretreated by compounds (2 µM; or 0.5 µM for 10, 11, and 13) or prednisone (PDS; 2 µM) dissolved in DMSO at indicated concentrations for 1 h. Then, lipopolysaccharide (LPS) 1 µg/mL was added to trigger the NF-κB activation. The activity of NF-κB was measured 24 h after LPS stimulation using QuantiBlue™ assay. Graph represents mean ± SEM. Red dotted line show value of DMSO-only treated group, azur dotted line CA treated group, and blue dotted line PDS treated group. ** indicates statistical significance (p < 0.01) to DMSO group; *** indicates statistical significance (p < 0.001) to DMSO group **** indicates statistical significance (p < 0.0001) to DMSO group.
# IκBα = assay: Signaling pathway analysis (Western blot): IκBα level; format: cell-based; details: 2 µM, 30 min after LPS 1 µg/mL
# Experimental: as §1, §2
# TNF-α = TNF-α secretion by LPS-stimulated PMA-differentiated THP1-Blue™ NF-κB macrophages (ELISA); format: cell-based, Human; details: 2 µM, LPS 1 µg/mL, 24 h
# Experimental: Differentiated THP1-Blue™ NF-κB macrophages (see the chapter 3.6) were pre-treated for 1 h with 2 µM solutions of the tested compounds 8, 12, 6, 17, cinnamic acid, and prednisone dissolved in DMSO, or only the vehicle [0.1% (v/v) […] solution]. The inflammatory-like response was triggered by adding 1 μg/mL of LPS from E. coli 0111:B4 (Sigma-Aldrich) to the pre-treated macrophages; the control cells were left without LPS treatment. After 24 h, the supernatants were collected and the concentration of TNF-α was measured using a Human TNF-α ELISA Kit (Diaclone, Besançon, France), according to the manufacturer’s manual.
# Figure 7 Effect of N-arylcinnamamide derivatives on the secretion of TNF-α. THP1-Blue™ NF-κB cells were differentiated to macrophages by PMA. Such cells were pretreated by compounds or PDS (2 µM) for 1 h, then LPS (1 µg/mL) was added to trigger the inflammatory signalization. Cultivation medium was collected 24 h after LPS stimulation, and the amount of TNF-α was measured by the ELISA technique. Graph represents mean ± SEM. * indicates statistical significance (p < 0.05) to DMSO group; ** indicates statistical significance (p < 0.01) to DMSO group **** indicates statistical significance (p < 0.0001) to DMSO group.
# THP1-Blue™ NF-κB cells = assay: Cell viability determination (WST-1), 24 h; format: cell-based; details: WST-1, 24 h incubation, serum-free medium, three independent measurements; read-out: IC50 ± SEM, viability of THP1-Blue™ NF-κB cell line
# Experimental: The cell viability was determined as was described previously. […] The final concentration of DMSO was 0.1% (v/v) in each well. Measurements were taken after 24 h incubation with the tested substances. Viability was measured by the Cell Proliferation Reagent kit WST-1 (Roche Diagnostics, Basel, Switzerland) according to the manufacturer’s manual. […] The IC50 values were calculated by four-parameter logistic (4PL) analysis from obtained viability curves.
# [2] = parameters: method as in PMID 30087309; details: cited from earlier work
# NF-κB p65 = assay: Immunocytochemical analysis of NF-κB nuclear migration; format: cell-based; details: 2 µM, 1 h after LPS 1 µg/mL, PMA-differentiated macrophages
# Experimental: To differentiate THP1-Blue™ NF-κB monocytes into macrophages, the cells were stimulated with phorbol myristate acetate (PMA) at the final concentration of 50 ng/mL, as was described previously. Cells were seeded into 8-well cell culture glass slide (SPL, Korea) at the concentration of 500,000 cells/mL, 150,000 cells per well. The compound 17 was added at the final concentration of 2 µM, and 1 h later, the cells were activated by LPS (1 µg/mL). After 1h, the culture slide was washed with PBS and fixed with 4% formaldehyde. The cells were permeabilized by 0.1% Triton X-100 (v/v; Merck) and blocked with 3% bovine serum albumin (BSA, Merck) dissolved in PBS. The primary antibody NF-κB p65 (Abcam, Cambridge, UK; product No. ab16502) at concentration 2.5 µg/mL was used for overnight incubation at 4 °C. After that, secondary anti-rabbit antibody labeled with Alexa Fluor® 488 (Cell Signaling; product No. 4412; dilution 1:1000) was added for 1 h in dark, and the nuclei were stained using 0,5 µg/mL DAPI (Merck) for 5 min. The wells were washed three-times between the mentioned steps with PBS. The coverslip was mounted with VectaShield mounting (Vector laboratories, Burlingame, CA, USA) medium and sealed with the nail polish. The nail polish was allowed to dry at 4 °C and the translocation of NF-κB was observed by fluorescence microscopy. […]
structure (smiles),measurement,setting,value
"O=C(O)/C=C/c1ccccc1 [CA, cinnamic acid, reference compound]",effect on MAPKs activity,"MAPKs (p38, ERK1/2, JNK)",no effect
same,inhibition at 2 µM,[1],11.4%
same,effect on IκBα levels,IκBα,no effect
same,effect on TNF-α production (in words),TNF-α,did not affect
same,IC50,THP1-Blue™ NF-κB cells,> 30 µM
Cc1cccc(NC(=O)/C=C/c2ccccc2)c1 [Compound 2],inhibition at 2 µM,[1],9%
same,IC50,THP1-Blue™ NF-κB cells,> 30 µM
Cc1ccc(NC(=O)/C=C/c2ccccc2)cc1 [Compound 3],inhibition at 2 µM,[1],8.5%
same,IC50,THP1-Blue™ NF-κB cells,> 30 µM
"O=C(/C=C/c1ccccc1)Nc1cccc(C(F)(F)F)c1 [Compound 6, (2E)-3-Phenyl-N-[3-(trifluoromethyl)phenyl]prop-2-enamide]",inhibition at 2 µM,[1],16.7%
same,log k,[2],0.4859
same,decrease of the level of TNF-α,TNF-α,10.4%
same,IC50,THP1-Blue™ NF-κB cells,11.6 ± 1.13 µM
Cc1ccc(C)c(NC(=O)/C=C/c2ccccc2)c1 [Compound 7],inhibition at 2 µM,[1],14.8%
same,IC50,THP1-Blue™ NF-κB cells,> 30 µM
"O=C(/C=C/c1ccccc1)Nc1cc(Cl)ccc1Cl [Compound 8, (2E)-N-(2,5-dichlorophenyl)-3-phenylprop-2-enamide]",effect on MAPKs activity,"MAPKs (p38, ERK1/2, JNK)",no effect
same,inhibitory effect on NF-κB activity compared with prednisone (in words),[1],comparable with prednisone
same,inhibition at 2 µM,[1],22.5%
same,effect on IκBα levels,IκBα,no effect
same,IC50,THP1-Blue™ NF-κB cells,> 30 µM
O=C(/C=C/c1ccccc1)Nc1c(Cl)cccc1Cl [Compound 9],inhibition at 2 µM,[1],14.1%
same,IC50,THP1-Blue™ NF-κB cells,> 30 µM
O=C(/C=C/c1ccccc1)Nc1ccc(Cl)c(Cl)c1 [Compound 10],inhibition at 0.5 µM,[1],10.9%
same,log k,[2],0.6821
same,IC50,THP1-Blue™ NF-κB cells,6.28 ± 2.32 µM
O=C(/C=C/c1ccccc1)Nc1cc(Cl)cc(Cl)c1 [Compound 11],inhibition at 0.5 µM,[1],16.2%
same,log k,[2],0.8155
same,IC50,THP1-Blue™ NF-κB cells,2.43 ± 1.06 µM
"O=C(/C=C/c1ccccc1)Nc1c(Br)cccc1Br [Compound 12, (2E)-N-(2,6-dibromophenyl)-3-phenylprop-2-enamide]",inhibitory effect on NF-κB activity compared with prednisone (in words),[1],comparable with prednisone
same,inhibition at 2 µM,[1],23.1%
same,decrease of the level of TNF-α,TNF-α,10%
same,effect on TNF-α production (in words),TNF-α,decreased
same,IC50,THP1-Blue™ NF-κB cells,> 30 µM
O=C(/C=C/c1ccccc1)Nc1cc(C(F)(F)F)cc(C(F)(F)F)c1 [Compound 13],inhibition at 0.5 µM,[1],19.7%
same,log k,[2],0.9814
same,IC50,THP1-Blue™ NF-κB cells,2.17 ± 1.19 µM
O=C(/C=C/c1ccccc1)Nc1cc(Br)ccc1F [Compound 14],inhibition at 2 µM,[1],19.7%
same,IC50,THP1-Blue™ NF-κB cells,> 30 µM
"O=C(/C=C/c1ccccc1)Nc1cc(F)ccc1Br [Compound 15, (2E)-N-(2-bromo-5-fluorophenyl)-3-phenylprop-2-enamide]",inhibition at 2 µM,[1],17.8%
same,IC50,THP1-Blue™ NF-κB cells,> 30 µM
"O=C(/C=C/c1ccccc1)Nc1ccc(Br)cc1Cl [Compound 16, (2E)-N-(4-bromo-2-chlorophenyl)-3-phenylprop-2-enamide]",inhibition at 2 µM,[1],13.7%
same,IC50,THP1-Blue™ NF-κB cells,> 30 µM
"O=C(/C=C/c1ccccc1)Nc1cc(C(F)(F)F)ccc1Cl [Compound 17, (2E)-N-[2-Chloro-5-(trifluoromethyl)phenyl]-3-phenylprop-2-enamide]",effect on MAPKs activity,"MAPKs (p38, ERK1/2, JNK)",no effect
same,inhibitory effect on NF-κB activity compared with prednisone (in words),[1],comparable with prednisone
same,inhibition at 2 µM,[1],27.1%
same,effect on IκBα levels,IκBα,no effect
same,decrease of the level of TNF-α,TNF-α,12.4%
same,effect on TNF-α production (in words),TNF-α,decreased
same,IC50,THP1-Blue™ NF-κB cells,> 30 µM
same,nuclear translocation of NF-κB after LPS stimulation,NF-κB p65,slightly affected
"COc1ccc([N+](=O)[O-])cc1NC(=O)/C=C/c1ccccc1 [Compound 18, (2E)-N-(2-methoxy-5-nitrophenyl)-3-phenylprop-2-enamide]",inhibition at 2 µM,[1],17.6%
same,IC50,THP1-Blue™ NF-κB cells,> 30 µM
"C[C@]12C=CC(=O)C=C1CC[C@@H]1[C@@H]2C(=O)C[C@@]2(C)[C@H]1CC[C@]2(O)C(=O)CO [PDS, prednisone, reference compound]",decrease of the level of TNF-α,TNF-α,70.3%
